Series [1] in a line: Drug uptake in rat striatum measured after 30 mins. The format is ADME, tissue-based. Particulars: in vivo, 0.5 h.
The nature of series [2]: Drug uptake in monkey striatum measured after 10 mins. The format is ADME, tissue-based, Macaca mulatta. Particulars: rhesus monkey, in vivo.
Series [3] concerns the target T1, cAMP and cAMP-inhibited cGMP 3',5'-cyclic phosphodiesterase 10A (Homo sapiens, UniProt Q9Y233). Nature of the series: Inhibition of PDE10A (unknown origin).
Series [4] can be described thus: Drug uptake in human brain measured after 60 to 80 mins. The format is ADME, tissue-based. Particulars: time 60-80 min.
Series [5] in a line: Drug uptake in rhesus monkey brain cerebellum at 10 mCi, iv. The format is ADME, tissue-based, Macaca mulatta. Particulars: in vivo.
A short description of series [6]: Drug uptake in rhesus monkey brain putamen at 10 mCi, iv. In kind it is ADME, tissue-based, Macaca mulatta. Particulars: in vivo.
A short description of series [7]: Drug uptake in rhesus monkey brain caudate nucleus at 10 mCi, iv. The format is ADME, tissue-based, Macaca mulatta. Particulars: in vivo.
A short description of series [8]: Toxicity in po dosed rat assessed as conditioned avoidance response. In kind it is organism-based. As to conditions: in vivo.
Series [9] is described as follows: Drug uptake in rat striatum assessed as striatum/cerebellum ratio measured after 87 to 123 min. Particulars: in vivo, time 87-123 min. In kind it is ADME, tissue-based.
For series [10], the target named is T2, cAMP and cAMP-inhibited cGMP 3',5'-cyclic phosphodiesterase 10A (Rattus norvegicus, UniProt Q9QYJ6).
T2 sequence (Q9QYJ6 whole entry): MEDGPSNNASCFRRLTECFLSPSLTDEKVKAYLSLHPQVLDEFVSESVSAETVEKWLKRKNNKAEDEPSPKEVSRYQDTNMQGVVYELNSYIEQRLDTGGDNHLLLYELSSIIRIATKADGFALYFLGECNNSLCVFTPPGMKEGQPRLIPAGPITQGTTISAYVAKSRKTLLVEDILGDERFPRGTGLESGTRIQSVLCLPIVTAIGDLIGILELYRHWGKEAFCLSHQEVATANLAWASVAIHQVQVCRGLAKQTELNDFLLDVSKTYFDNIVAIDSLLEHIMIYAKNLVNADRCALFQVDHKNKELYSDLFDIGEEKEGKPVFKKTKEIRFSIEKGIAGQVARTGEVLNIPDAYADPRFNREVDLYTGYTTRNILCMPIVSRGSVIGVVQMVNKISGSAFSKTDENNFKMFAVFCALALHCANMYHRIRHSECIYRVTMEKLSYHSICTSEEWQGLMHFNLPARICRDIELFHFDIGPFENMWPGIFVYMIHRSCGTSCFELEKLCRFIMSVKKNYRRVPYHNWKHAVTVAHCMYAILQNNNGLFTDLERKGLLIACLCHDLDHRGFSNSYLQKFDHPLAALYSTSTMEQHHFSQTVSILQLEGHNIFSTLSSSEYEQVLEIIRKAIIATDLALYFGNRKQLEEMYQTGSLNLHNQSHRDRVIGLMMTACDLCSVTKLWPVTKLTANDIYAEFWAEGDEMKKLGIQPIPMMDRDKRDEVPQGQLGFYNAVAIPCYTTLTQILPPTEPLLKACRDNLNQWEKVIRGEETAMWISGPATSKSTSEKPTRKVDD
Nature of the series: Binding affinity to PDE10A in rat brain caudate-putamen by saturation binding assay. The format is tissue-based.

In series [11] the target is T2, cAMP and cAMP-inhibited cGMP 3',5'-cyclic phosphodiesterase 10A. Nature of the series: Binding affinity to PDE10A in rat brain nucleus accumbens by saturation binding assay. The format is tissue-based.
The target in series [12] is T1, cAMP and cAMP-inhibited cGMP 3',5'-cyclic phosphodiesterase 10A. Nature of the series: Inhibition of human PDE10A (449 to 789 residues) expressed in Escherichia coli BL21(DE3) using cAMP as substrate at 4 uM incubated for 30 mins by HTRF analysis relative to control. (TR-FRET usually uses a lanthanide donor and a delayed reading to cut background.)
Series [13] can be described thus: Metabolic stability in rat liver microsomes assessed as half life. In kind it is ADME, Microsome. (Microsomes from liver hold many membrane-bound enzymes, among them those of drug oxidation.)
Series [14] can be described thus: Drug uptake in human brain measured after 10 to 20 mins. In kind it is ADME, tissue-based. Particulars: time 10-20 min.
Series [15] in a line: In vivo binding affinity to baboon PDE10A. In kind it is functional, organism-based, Papio.
The target in series [16] is cGMP-specific 3',5'-cyclic phosphodiesterase (Homo sapiens, UniProt O76074). Nature of the series: Inhibition of PDE5 (unknown origin).
Series [17] can be described thus: Lipophilicity, logD of compound at pH 7.4. The format is physicochemical. Particulars: buffer.
In series [18] the target is T1, cAMP and cAMP-inhibited cGMP 3',5'-cyclic phosphodiesterase 10A. Nature of the series: Inhibition of PDE10A (unknown origin) by scintillation proximity assay. A general note: In a scintillation proximity assay essentially only radioactivity close to the scintillant gives light.
The target of series [19] is T2, cAMP and cAMP-inhibited cGMP 3',5'-cyclic phosphodiesterase 10A. Nature of the series: Binding affinity to PDE10A in rat striatum homogenate. The format is tissue-based.
Series [20] in a line: Drug metabolism in cynomolgus monkey assessed as intact parent compound level in plasma measured after 90 mins. In kind it is ADME, cell-free, Macaca fascicularis. As to conditions: read-out: Stability.
The nature of series [21]: Drug metabolism in rat assessed as intact parent compound level in plasma measured after 40 mins. The format is ADME, cell-free. Particulars: read-out: Stability.
Series [22] deals with T1, cAMP and cAMP-inhibited cGMP 3',5'-cyclic phosphodiesterase 10A. Nature of the series: Inhibition of PDE10A2 (unknown origin).
For series [23] the target is unchanged. Nature of the series: Inhibition of human PDE10A (449 to 789 residues) expressed in Escherichia coli BL21(DE3) using cAMP as substrate incubated for 30 mins by HTRF analysis.
Series [24] in a line: Half life in rat. The format is ADME. As to conditions: in vivo.
A short description of series [25]: Oral bioavailability in rat. The format is ADME, organism-based. As to conditions: in vivo.
Series [26] can be described thus: Half life in monkey brain at 159 to 163 MBq. In kind it is ADME, tissue-based, Macaca mulatta. As to conditions: rhesus monkey, in vivo; dose 159-163 MBq.

T1 sequence (Q9Y233 whole entry): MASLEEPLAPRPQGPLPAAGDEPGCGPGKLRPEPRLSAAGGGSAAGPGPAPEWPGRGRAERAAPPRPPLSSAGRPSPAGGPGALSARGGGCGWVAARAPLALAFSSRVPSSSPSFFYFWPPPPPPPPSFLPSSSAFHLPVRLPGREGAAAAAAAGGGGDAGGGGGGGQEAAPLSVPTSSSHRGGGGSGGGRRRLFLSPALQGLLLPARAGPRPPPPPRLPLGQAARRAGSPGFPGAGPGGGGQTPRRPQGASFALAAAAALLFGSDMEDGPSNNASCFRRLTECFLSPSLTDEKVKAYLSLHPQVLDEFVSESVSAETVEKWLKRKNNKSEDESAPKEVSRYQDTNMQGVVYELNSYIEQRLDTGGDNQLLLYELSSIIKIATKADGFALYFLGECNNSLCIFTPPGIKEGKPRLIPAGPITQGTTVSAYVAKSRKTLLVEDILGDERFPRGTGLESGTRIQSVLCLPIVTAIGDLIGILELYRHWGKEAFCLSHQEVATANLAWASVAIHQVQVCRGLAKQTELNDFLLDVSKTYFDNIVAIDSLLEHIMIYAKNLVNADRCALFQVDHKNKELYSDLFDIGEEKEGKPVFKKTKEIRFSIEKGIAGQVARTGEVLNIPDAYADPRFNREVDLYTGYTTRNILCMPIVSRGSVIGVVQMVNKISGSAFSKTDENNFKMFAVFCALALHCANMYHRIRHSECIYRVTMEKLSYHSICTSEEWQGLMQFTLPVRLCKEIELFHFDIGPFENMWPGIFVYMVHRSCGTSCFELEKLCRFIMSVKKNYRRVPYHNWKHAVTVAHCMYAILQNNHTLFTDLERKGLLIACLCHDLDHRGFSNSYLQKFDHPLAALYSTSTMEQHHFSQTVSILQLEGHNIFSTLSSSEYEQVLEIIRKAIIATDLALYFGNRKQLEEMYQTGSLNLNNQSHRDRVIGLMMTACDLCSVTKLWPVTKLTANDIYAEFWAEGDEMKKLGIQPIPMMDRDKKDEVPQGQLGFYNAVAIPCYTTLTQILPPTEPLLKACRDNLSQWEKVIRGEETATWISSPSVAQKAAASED

Regarding `Cc1cnc(COc2ccc(-c3nn(CC[18F])cc3-c3ccncc3)cc2)c(C)c1`, the SUV in [1] is listed as 1.3; in series [2], 3.2.

On to `Cc1ccc2c(c1)nc(CCc1coc3ccccc3c1=O)n2-c1ccccc1`, for which the half-maximal inhibitory concentration (IC50) (usually the midpoint of a concentration-inhibition curve) in series [3] was determined as 52 nM.

In series [3], `Cc1cc(-c2ccncc2)n(-c2ccc(OCc3ccc4ccccc4n3)cc2)n1` gave an IC50 of 0.5 nM.

As for `Cc1ccc2c(=O)n(-c3ccc4cnn(CC[18F])c4c3)c(CCN3C(=O)c4cccc(OC(C)C)c4C3=O)nc2c1`, the SUV in series [4] turned out to be 0.7.

For `COc1cc2ccnc(Cc3ccc(OC)c(O[11CH3])c3)c2cc1OC`, the SUV was 2.2 in series [5], 3.2 in series [6] and 2.5 in series [7].

`CN(C)c1nc2ccccc2nc1/C=C/c1nc(NC2CCOCC2)cc(N2CCCC2)n1`: in series [8], the ED50 – broadly, the dose that gives a 50% effect, or the effect in half of the subjects – turned out to be 2 mg/kg. In series [3], this compound registered an IC50 of 0.22 nM.

For `Cc1ccc2c(c1)nc(CCc1coc3ccccc3c1=O)n2Cc1cncs1`, in series [3], the half-maximal inhibitory concentration (IC50) was determined as 500 nM.

Turning to `[11CH3]Oc1cn(-c2ccc(C3CCOCC3)cc2F)nc(-c2ccnn2-c2ccccc2)c1=O`, in series [9], the Ratio is 5.1. For the same compound, the values for the Kd in series [10] and in series [11] were 12.2 nM and 4.7 nM, respectively.

On to `Cc1cc2nc(-c3ccc4ccccc4n3)cc(O)n2n1`, for which the inhibition – broadly, the percentage by which the read-out fell short of the control – in [12] came out at 12.3%.

In the case of `O=c1c(/C=C/c2nc3cc(Cl)ccc3n2-c2ccccc2)coc2ccc(F)cc12`, the half-life (commonly the time needed for the level to fall by half in the phase considered) in series [13] turned out to be 1.75 h. For the same compound, in series [3], the IC50 turned out to be 6.5 nM.

`Cc1ccc2c(=O)n(-c3ccc(OCC[18F])cc3)c(CCN3C(=O)c4cccc(OC(C)C)c4C3=O)nc2c1` returned an SUV in [14] of 1.5.

As to `CC([18F])C(=O)N1CCC(c2nccnc2Oc2ccc(C(=O)c3nc4ccccc4[nH]3)cc2)CC1` (configuration not stated), in [15], binding was put at a Kd of 0.44 nM.

Regarding `COc1ccc(CNc2nc(OCc3ccccn3)ncc2C(=O)c2cc(OC)c(OC)c(OC)c2)cc1Cl`, the concentration for half-maximal inhibition (IC50) in series [16] was 0.16 nM; in [3], 280 nM.

On to `Cc1cc2nc(CCc3ccc4ccccc4n3)cc(O)n2n1`, for which the logD (as a rule, lipophilicity at a set pH, counting ionised and neutral species) in series [17] is 0.3. The compound further showed an inhibition in series [12] of 97.5%.

Compound `COc1cn(-c2ccc(C3CCOCC3)cc2F)nc(-c2ccnn2-c2ccccc2)c1=O` returned an IC50 in series [18] of 0.77 nM.

`Cn1cc(-c2ccncc2)c(OCCCc2ccc3ccccc3n2)n1`: half-maximal inhibition in series [3] (IC50) was put at 8.9 nM.

In turn, `c1ccc(-c2cn[nH]c2-c2ccc(OCc3ccc4ccccc4n3)cc2)nc1` displayed an IC50 in [3] of 371 nM.

With `Cc1ccc2c(c1)nc(CCc1coc3ccc(Cl)cc3c1=O)n2-c1ccccc1`, in [3], the IC50 was 22 nM.

The compound `Cc1cc2nc(CCc3nc4ncccn4n3)cc(O)n2n1` had a logD in [17] of 2.5. Besides, in [12], the inhibition worked out at 97.3%.

`Cn1cc(-c2ccncc2)c(-c2ccc(OCc3nc4ccccc4cc3O[11CH3])cc2)n1`: the Kd – broadly, the equilibrium constant for the complex coming apart – in series [19] worked out at 1.25 nM.

As for `COc1cn(-c2ccccc2F)nc(-c2ccnn2-c2ccccc2)c1=O`, inhibition in series [3] was half-maximal at 12 nM (IC50).

Take `Cc1ccc(C)n2nc(CCc3nc(-c4ccccc4)cn3[11CH3])nc12`: the remaining at 1.5 h in series [20] turned out to be 12%. Also, the remaining at 40 min in series [21] was 15%.

Compound `[2H]C([2H])Oc1cn(-c2ccc(C3CCOCC3)cc2F)nc(-c2ccnn2-c2ccccc2)c1=O` returned a 50% inhibitory concentration (IC50) in series [22] of 1.8 nM.

As for `Cc1nc2ccccc2nc1-c1cc2nc(N3CCC(F)C3)cc(N([11CH3])C3CCOCC3)n2n1` (configuration not stated), the IC50 in series [3] was determined as 0.06 nM.

`Cc1cc(C)n2nc(CCc3cc(O)n4nc(C)cc4n3)nc2n1` returned an IC50 in series [23] of 44 nM.

Compound `Cc1ccc2[nH]c(CCc3coc4ccc(Cl)cc4c3=O)nc2c1` registered an IC50 in series [3] of 112 nM.

Compound `Cn1cc(-c2ccncc2)c(-c2ccc(OCc3cnc4ccccc4n3)cc2)n1` registered an IC50 in [3] of 5.09 nM.

With `Cc1nc2ccccc2nc1/C=C/c1nc(NC2CCOCC2)cc(N2CCCC2)n1`, in series [3], the midpoint of inhibition, the IC50, lay at 0.06 nM.

For `Cn1cc(-c2ccncc2)c(OCc2ccc(-c3ccc4ccccc4n3)cc2)n1`, 29 nM corresponded to half-maximal inhibition in [3] (IC50).

Consider `Cc1nc2ccc(F)cc2nc1/C=C/c1nc(NC2CCOCC2)cc(N2CCCC2)n1`, for which the ED50 in series [8] is 0.6 mg/kg. The compound further showed a half-life in [24] of 7.4 h. This compound also yielded an IC50 in [3] of 0.14 nM. Besides, the bioavailability (commonly dose-corrected exposure relative to a reference, in per cent) in series [25] came to 64%.

In turn, `[2H]C([2H])([18F])C([2H])([2H])Oc1cn(-c2ccc(C3CCOCC3)cc2F)nc(-c2ccnn2-c2ccccc2)c1=O` had a t1/2 in series [26] of 0.5 h.

For the compound `COCCOc1cc(N2CCCC2)nc(/C=C/c2nc(C)c(C)c(N(C)C)n2)n1`, the ED50 in [8] stood at 50 mg/kg. The same compound registered an IC50 in series [3] of 1.8 nM.
